Reference: article PMC13197777, “Distinct 2-phenylimidazo[1,2-a]pyridine derivatives that inhibit breast cancer cell proliferation identified as AHR ligands” (iScience, 2026)
Where two headings read alike, the source gives them in different places.

Experiments:
[1] = system: ER+ MCF-7, ZR75–1, and T47D breast cancer cells; design: method as in PMID 37520743; settings: previously identified ref 17; cited from earlier work
AHR = target: T1, AHR (Homo sapiens, UniProt P35869); assay: AHR luciferase reporter assay in HAHLH cells; type: cell-based; settings: 8 h; for EC50: % of maximal luciferase activity with dioxin 10 nM, read-out: EC50 AHR transactivation
T1 construct: endogenous in cells; host or cells: HAHLH (HeLa with XRE-luciferase reporter)
T1 sequence (P35869 11-848): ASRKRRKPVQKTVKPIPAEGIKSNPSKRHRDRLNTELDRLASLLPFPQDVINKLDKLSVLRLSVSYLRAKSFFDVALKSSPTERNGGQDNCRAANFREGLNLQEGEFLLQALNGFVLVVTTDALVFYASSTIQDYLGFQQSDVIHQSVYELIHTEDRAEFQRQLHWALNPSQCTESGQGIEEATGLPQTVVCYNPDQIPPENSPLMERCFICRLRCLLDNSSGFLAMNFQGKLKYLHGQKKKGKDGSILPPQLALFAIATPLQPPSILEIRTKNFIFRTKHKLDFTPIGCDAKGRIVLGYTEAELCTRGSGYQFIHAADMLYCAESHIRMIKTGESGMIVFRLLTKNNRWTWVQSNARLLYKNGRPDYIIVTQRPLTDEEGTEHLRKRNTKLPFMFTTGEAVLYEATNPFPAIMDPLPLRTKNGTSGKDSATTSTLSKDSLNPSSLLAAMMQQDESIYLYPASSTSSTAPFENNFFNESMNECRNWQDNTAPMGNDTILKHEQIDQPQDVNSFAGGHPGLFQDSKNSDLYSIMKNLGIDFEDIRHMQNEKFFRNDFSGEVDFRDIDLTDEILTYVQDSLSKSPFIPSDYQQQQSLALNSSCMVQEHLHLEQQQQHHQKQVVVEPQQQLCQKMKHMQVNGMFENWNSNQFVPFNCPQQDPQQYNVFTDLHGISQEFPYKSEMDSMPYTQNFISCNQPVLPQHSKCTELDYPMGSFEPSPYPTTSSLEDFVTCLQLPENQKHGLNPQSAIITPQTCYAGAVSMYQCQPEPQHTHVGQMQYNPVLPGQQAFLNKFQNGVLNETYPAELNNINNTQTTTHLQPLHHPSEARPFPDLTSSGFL
Excerpt: To characterize the chemical induced AHR activity, we used the already established HAHLH reporter cell lines obtained by stably expression of HeLa cells with the dioxin-responsive gene XRE(TnGCGTG)3-tata-luciferase-Luc-hygromycin plasmid.[29] The reporter HELN hERα cell line was obtained by transfecting human HeLa cells with the ERE-responsive gene ERE-βGlobin-luciferase-Luc-neomycin and the pSG5-hERα-puromycin plasmids as previously described.[59] To determine the action of the chemical on AHR and hERα activity, cells were seeded at a density of 50,000 cells per well in 96-well white opaque tissue culture plates (Greiner CellStar) in 150 μL of Dulbecco’s Modified Eagle Medium: Nutrient Mixture F-12 (DMEM/F- 12) without phenol red and 1 g/L glucose and supplemented with 5% stripped fetal bovine serum, 100 units/mL of penicillin, 100 μg/mL of streptomycin (test medium). Twenty-four hours later, chemicals to be tested were added at 4x concentration in culture medium, and cells were incubated at 37 °C for 8 h (HAhLH cells) or 24 h (HELN hERα cells). At the end of the incubation period, culture medium was replaced with test medium containing 0.3 mM luciferin and luciferase activity was measured for 2 s in intact living cells using a MicroBeta Wallac luminometer (PerkinElmer). Tests were performed in quadruplicate at 4x concentration in the same medium in at least 4 independent experiments. Results were expressed as % of the maximal luciferase activity. […] Effective concentration (ECs) for a given compound, EC50 is defined as the concentration inducing 50% of its maximal effect. The EC50 values were calculated including the adjustment for the basal activity of the cell line.

AHR-Hsp90-XAP2 = target: T2, AHR-Hsp90-XAP2 (Homo sapiens, UniProt P35869); assay: Thermal stability measurements (nano-DSF); type: binding; settings: 2.5 μM protein, 12.5 μM compound
T2 construct: made in house
T2 sequence (P08238 whole entry partner, one chain of several): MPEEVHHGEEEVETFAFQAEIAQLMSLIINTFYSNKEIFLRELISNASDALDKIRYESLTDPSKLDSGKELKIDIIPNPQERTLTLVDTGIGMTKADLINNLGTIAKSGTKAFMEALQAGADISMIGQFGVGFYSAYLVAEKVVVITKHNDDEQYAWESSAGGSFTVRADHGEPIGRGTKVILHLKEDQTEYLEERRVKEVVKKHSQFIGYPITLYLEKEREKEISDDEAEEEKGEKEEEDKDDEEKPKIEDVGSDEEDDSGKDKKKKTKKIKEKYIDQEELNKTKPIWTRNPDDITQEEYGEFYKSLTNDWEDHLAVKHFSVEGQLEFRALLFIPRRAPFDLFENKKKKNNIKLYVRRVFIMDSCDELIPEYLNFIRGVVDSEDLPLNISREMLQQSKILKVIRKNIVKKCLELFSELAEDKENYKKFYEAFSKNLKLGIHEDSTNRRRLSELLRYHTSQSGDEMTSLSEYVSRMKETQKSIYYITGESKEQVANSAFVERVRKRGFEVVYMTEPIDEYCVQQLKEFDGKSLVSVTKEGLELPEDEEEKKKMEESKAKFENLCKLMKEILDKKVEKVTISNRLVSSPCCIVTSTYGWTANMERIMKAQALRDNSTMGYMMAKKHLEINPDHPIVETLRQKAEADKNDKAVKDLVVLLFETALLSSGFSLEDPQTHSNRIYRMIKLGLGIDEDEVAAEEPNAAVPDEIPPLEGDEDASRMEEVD
T2 sequence (O00170 whole entry partner, one chain of several): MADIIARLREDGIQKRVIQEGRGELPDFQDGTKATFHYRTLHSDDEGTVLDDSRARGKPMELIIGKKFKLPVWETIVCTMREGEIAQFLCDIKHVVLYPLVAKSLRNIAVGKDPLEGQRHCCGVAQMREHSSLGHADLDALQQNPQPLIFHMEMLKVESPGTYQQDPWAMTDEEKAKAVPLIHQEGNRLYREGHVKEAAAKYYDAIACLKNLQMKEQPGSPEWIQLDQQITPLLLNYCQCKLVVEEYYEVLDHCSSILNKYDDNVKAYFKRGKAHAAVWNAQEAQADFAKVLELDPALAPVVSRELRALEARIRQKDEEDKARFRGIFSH
Protocol: Thermal denaturation experiments of AHR complexes in the presence of compounds were performed using a Tycho NT.6 instrument (NanoTemper Technologies). Protein samples were prepared as previously described[67] and subsequently diluted in the buffer containing 20 mM Bis-Tris–HCl pH 7.0, 50 mM NaCl, 10 mM KCl, 10 mM MgCl2, 20 mM Na2MoO4 and 2 mM β-mercaptoethanol to a final protein concentration of 2.5 μM. Compound stock solutions were prepared at 20 mM in DMSO and added to the protein samples to yield a final concentration of 12.5 μM. For control measurements, DMSO was added to a final concentration of 5% (v/v). Following ligand or DMSO addition, the samples were gently mixed and incubated at room temperature for 10 min to allow equilibration. Thermal denaturation profiles were acquired over a temperature range of 35°C–95°C, with a heating rate of 1 °C per min. Fluorescence was monitored at emission wavelengths of 330 nm and 350 nm, and the data were analyzed as the first derivative of the fluorescence ratio (F330/F350) as a function of temperature. All experiments were performed in triplicate, and data were analyzed using the Tycho NT.6 software (NanoTemper Technologies) according to the manufacturer’s recommendations.

MCF-7 luc = assay: Clonogenic assay (clonal expansion), MCF-7 cells expressing wild-type ER; type: cell-based; settings: Homo sapiens, MCF7, 336 h
Protocol: (§1) Cells were seeded at a density of 1–2×10^3 cells/well in a 6-well plate and treated with increasing concentrations of the X compounds for 14–21 days. Medium and compounds were renewed every 7 days. The experiments were terminated by fixing the cells with methanol and the colonies formed were visualized after staining with 0.5% crystal violet (w/v) in 20% methanol (v/v). Plates were photographed and the area covered by the colonies was calculated using the ColonyArea Plugin for Fiji (RRID:SCR_003070).[20]

MCF-7 cells = assay: Clonogenic assay in MCF-7 cells with AHR antagonist CH223191; type: cell-based, human; settings: MCF-7, 10 nM compound, 1 μM CH223191, 14 days
Protocol: as §1

MCF-7 luc D538G = assay: Clonogenic assay (clonal expansion), MCF-7 cells with D538G ER mutation; type: cell-based; settings: Homo sapiens, MCF7, 336 h
Protocol: as §1

[2] = Figure 1B, MCF-7 luc, absence of E2, 14 days
[3] = Figure 1C, MCF-7 luc + 10 nM E2, 14 days
[4] = read-out: IC50 clonal expansion, Figure 1B, MCF-7 luc D538G, absence of E2, 14 days
[5] = read-out: IC50 clonal expansion, Figure 1C, MCF-7 luc D538G + 10 nM E2, 14 days

| SMILES | Inhibition of Proliferation [1] | AHR transcriptional activity (reporter), in words (AHR) | EC50 (AHR) | thermal stabilization of AHR (nano-DSF) (AHR-Hsp90-XAP2) | IC50 (MCF-7 luc; [2]) | IC50 (MCF-7 luc; [3]) | IC50 (MCF-7 luc; Figure 1D, MCF-7 luc, absence of E2, 14 days) | IC50 (MCF-7 luc; Figure 1E, MCF-7 luc + 10 nM E2, 14 days) | inhibition of colony expansion in the presence of AHR antagonist CH223191 (MCF-7 cells) | IC50 (MCF-7 luc D538G; [4]) | IC50 (MCF-7 luc D538G; [5]) | IC50 (MCF-7 luc D538G; read-out: IC50 clonal expansion, Figure 1D, MCF-7 luc D538G, absence of E2, 14 days) | IC50 (MCF-7 luc D538G; read-out: IC50 clonal expansion, Figure 1E, MCF-7 luc D538G + 10 nM E2, 14 days) |
| --- | --- | --- | --- | --- | --- | --- | --- | --- | --- | --- | --- | --- | --- |
| Fc1ccc(-c2cn3cc(C(F)(F)F)cc(Cl)c3n2)cc1 [X15695] | Yes | potency that surpassed that of the classical AHR ligand dioxin | 0.14 nM | bona fide AHR ligands | 2.45 nM | 7.96 nM | 2.45 nM | 7.96 nM | clearly abrogated by the AHR antagonist CH223191 | 11.4 nM | 5.34 nM | 11.4 nM | 5.34 nM |
| Cc1cc(Cl)c2nc(-c3ccc(F)cc3)cn2c1 [X19724] | Yes | only modest enhancement | 1.37 nM | bona fide AHR ligands | 7.41 nM | 15.2 nM | – | – | to a lesser extent | 324 nM | 31.6 nM | – | – |
| Cc1cc(Cl)c2nc(-c3ccccc3)cn2c1 [X19728] | Yes | only modest enhancement | 3.94 nM | bona fide AHR ligands | – | 10.3 nM | – | – | no effect on colony formation | 74.4 nM | 48 nM | – | – |
